Test results from patent US20240360178A1, “MACROCYCLIC IMMUNOMODULATORS” (Bristol-Myers Squibb Company, priority 2021, published 2024).
Positions of bridges follow the written chain, without caps; N, C: chain ends. Non-standard residues stand in square brackets, D forms with d. Residues, ends and D or L forms follow the SMILES beside them. ξ: configuration not given here. *: point of attachment. Phe(3,4,5-F3) = N[C@@H](Cc1cc(F)c(F)c(F)c1)C(=O)O; Phe(4-COOH) = N[C@@H](Cc1ccc(C(=O)O)cc1)C(=O)O; Bip = N[C@@H](Cc1ccc(-c2ccccc2)cc1)C(=O)O; Phe(3-Cl) = N[C@@H](Cc1cccc(Cl)c1)C(=O)O; Phe(3-OMe) = COc1cccc(C[C@H](N)C(=O)O)c1; NMeF = CN[C@@H](Cc1ccccc1)C(=O)O; 3Pal = N[C@@H](Cc1cccnc1)C(=O)O; Cha = N[C@@H](CC1CCCCC1)C(=O)O; Carboxymethyl = O=C(O)C*; NMeA = CN[C@@H](C)C(=O)O; Nle = CCCC[C@H](N)C(=O)O; Orn = NCCC[C@H](N)C(=O)O; dNMeA = CN[C@H](C)C(=O)O; ξF = NC(Cc1ccccc1)C(=O)O; Dab = NCC[C@H](N)C(=O)O; ξE = NC(CCC(=O)O)C(=O)O; ξV = CC(C)C(N)C(=O)O; Sar = CNCC(=O)O

Molecular target: T1, human PD-1 (Jurkat-PD-1 cells) / PE-labeled human PD-L1-Ig (Homo sapiens, UniProt Q15116)
T1 construct: expressed in transfected cells; host or cells: Jurkat cell line over-expressing human PD-1
T1 sequence (Q15116 25-288): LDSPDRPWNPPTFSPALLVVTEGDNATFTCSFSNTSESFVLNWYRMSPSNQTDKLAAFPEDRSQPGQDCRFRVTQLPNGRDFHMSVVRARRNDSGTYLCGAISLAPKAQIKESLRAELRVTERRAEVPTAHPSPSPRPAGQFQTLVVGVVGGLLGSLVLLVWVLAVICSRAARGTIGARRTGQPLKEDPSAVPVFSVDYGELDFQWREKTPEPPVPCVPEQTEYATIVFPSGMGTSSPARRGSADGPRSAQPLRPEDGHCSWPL
Test: Jurkat-PD-1 Cell Binding High-Content Screening Assay (CBA); Jurkat hPD1-PDL1 assay
Settings: Jurkat cell line over-expressing human PD-1; PE-labeled PD-L1-Ig 20 nM final; compound incubated 2 hours at 37° C.; read-out: Jurkat HPD1-PDL1 IC50
Procedure, shortened: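 Jurkat cells overexpressing human PD-1 (8×10^3 per well, DMEM with 10% FCS) were preincubated with compound for 2 hours at 37° C. PE-labeled human PD-L1-Ig was then added at 20 nM final. Binding was quantified by high-content imaging.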

SMILES | IC50
CC(C)C[C@@H]1NC(=O)[C@H](Cc2c[nH]c3ccccc23)NC(=O)[C@H](CC(=O)O)NC(=O)[C@H](Cc2ccc(O)cc2)NC(=O)[C@H](Cc2ccccc2)NC(=O)CSC[C@@H](C(=O)NCC(N)=O)NC(=O)[C@H](CO)NC(=O)[C@H](C(C)C)NC(=O)[C@H](CC(C)C)NC(=O)[C@H](CC(N)=O)NC(=O)[C@@H](C)N(C)C(=O)[C@H](C)N(C)C(=O)[C@H](C(C)C)NC(=O)[C@H](Cc2ccc(-c3ccccc3)cc2)NC1=O [Example 1082] ({CH2CO}-FYDWL[Bip]V[NMeA][dNMeA]NLVSCG-NH2; thioether N-14) | 230 nM
CC(C)C[C@@H]1NC(=O)[C@H](CCCNC(=N)N)NC(=O)[C@H](Cc2ccccc2)N(C)C(=O)[C@H](C)N(C)C(=O)[C@H](CCC(=O)O)NC(=O)[C@H](Cc2ccc(-c3ccccc3)cc2)NC(=O)[C@H](C(C)C)NC(=O)[C@H](Cc2c[nH]c3ccccc23)NC(=O)[C@H](CC(=O)O)NC(=O)[C@H](Cc2ccc(O)cc2)NC(=O)[C@H](CCC(N)=O)NC(=O)CSC[C@@H](C(=O)NCC(N)=O)NC(=O)[C@H](CO)NC(=O)[C@H](C(C)C)NC1=O [Example 1286] ({CH2CO}-QYDWV[Bip]E[NMeA][NMeF]RLVSCG-NH2; thioether N-14) | 750 nM
CC(C)C1NC(=O)[C@H](Cc2c[nH]c3ccccc23)NC(=O)[C@H](CC(=O)O)NC(=O)[C@H](Cc2ccc(C(=O)O)cc2)NC(=O)[C@H](Cc2ccc(OCC(=O)O)cc2)NC(=O)CSC[C@@H](C(=O)N[C@@H](C)C(N)=O)NC(=O)[C@H]([C@@H](C)O)NC(=O)[C@H](C(C)C)NC(=O)[C@H](CC2CCCCC2)NC(=O)[C@H](CCN)NC(=O)[C@H](Cc2ccccc2)N(C)C(=O)[C@H](CCCN)NC(=O)[C@H](CCC(=O)O)NC(=O)[C@H](Cc2ccc(-c3ccccc3)cc2)NC1=O (stereo partly shown) [Example 1443] ({CH2CO}-Y(Carboxymethyl)[Phe(4-COOH)]DW[ξV][Bip]E[Orn][NMeF][Dab][Cha]VTCA-NH2; thioether N-14) | 80 nM
CC(C)C[C@@H]1NC(=O)[C@H](CCN)NC(=O)[C@H](Cc2ccccc2)N(C)C(=O)[C@H](C)N(C)C(=O)[C@H](CCCNC(=N)N)NC(=O)[C@H](Cc2ccc(-c3ccccc3)cc2)NC(=O)[C@H](C(C)C)NC(=O)[C@H](Cc2c[nH]c3ccccc23)NC(=O)[C@H](CC(=O)O)NC(=O)[C@H](Cc2ccc(O)cc2)NC(=O)[C@H](Cc2cccnc2)NC(=O)CSC[C@@H](C(=O)N[C@@H](C)C(N)=O)NC(=O)[C@H](CO)NC(=O)[C@H](C(C)C)NC1=O [Example 1306] ({CH2CO}-[3Pal]YDWV[Bip]R[NMeA][NMeF][Dab]LVSCA-NH2; thioether N-14) | 460 nM
CC(C)C[C@@H]1NC(=O)[C@H](Cc2c[nH]c3ccccc23)NC(=O)[C@H](CC(=O)O)NC(=O)[C@H](Cc2ccc(O)cc2)NC(=O)[C@H](Cc2cc(F)c(F)c(F)c2)NC(=O)CSC[C@@H](C(=O)NCC(N)=O)NC(=O)[C@H](CO)NC(=O)[C@H](C(C)C)NC(=O)[C@H](CC(C)C)NC(=O)[C@H](CC(N)=O)NC(=O)CN(C)C(=O)[C@H](C)N(C)C(=O)[C@H](C(C)C)NC(=O)[C@H](Cc2ccc(-c3ccccc3)cc2)NC1=O [Example 1098] ({CH2CO}-[Phe(3,4,5-F3)]YDWL[Bip]V[NMeA][Sar]NLVSCG-NH2; thioether N-14) | 310 nM
CC(C)C[C@@H]1NC(=O)[C@H](CCCNC(=N)N)NC(=O)[C@H](Cc2ccccc2)N(C)C(=O)[C@H](CCCNC(=N)N)NC(=O)[C@H](CCCNC(=N)N)NC(=O)[C@H](Cc2ccc(-c3ccccc3)cc2)NC(=O)[C@H](C(C)C)NC(=O)[C@H](Cc2c[nH]c3ccccc23)NC(=O)[C@H](CC(=O)O)NC(=O)[C@H](Cc2ccc(O)cc2)NC(=O)[C@H](Cc2cnc[nH]2)NC(=O)CSC[C@@H](C(=O)NCC(N)=O)NC(=O)[C@H](CO)NC(=O)[C@H](C(C)C)NC1=O [Example 1315] ({CH2CO}-HYDWV[Bip]RR[NMeF]RLVSCG-NH2; thioether N-14) | 530 nM
CCCC[C@@H]1NC(=O)[C@H](CCCNC(=N)N)NC(=O)[C@H](Cc2ccccc2)N(C)C(=O)[C@H](C)N(C)C(=O)[C@H](CCCNC(=N)N)NC(=O)[C@H](Cc2ccc(-c3ccccc3)cc2)NC(=O)[C@H](C(C)C)NC(=O)[C@H](Cc2c[nH]c3ccccc23)NC(=O)[C@H](CC(=O)O)NC(=O)[C@H](Cc2ccc(O)cc2)NC(=O)[C@H](Cc2ccccc2)NC(=O)CSC[C@@H](C(=O)NCC(N)=O)NC(=O)[C@H](CO)NC(=O)[C@H](C(C)C)NC1=O [Example 1067] ({CH2CO}-FYDWV[Bip]R[NMeA][NMeF]R[Nle]VSCG-NH2; thioether N-14) | 160 nM
CC(C)C[C@@H]1NC(=O)[C@H](Cc2cccc(Cl)c2)NC(=O)[C@H](CC(=O)O)NC(=O)[C@H](Cc2ccc(O)cc2)NC(=O)[C@H](Cc2ccccc2)NC(=O)CSC[C@@H](C(=O)N[C@@H](C)C(N)=O)NC(=O)[C@H](CO)NC(=O)[C@H](C(C)C)NC(=O)[C@H](CC(C)C)NC(=O)[C@H](CC(N)=O)NC(=O)CN(C)C(=O)[C@H](C)N(C)C(=O)[C@H](C(C)C)NC(=O)[C@H](Cc2ccc(-c3ccccc3)cc2)NC1=O [Example 1061] ({CH2CO}-FYD[Phe(3-Cl)]L[Bip]V[NMeA][Sar]NLVSCA-NH2; thioether N-14) | 140 nM
CC(C)C[C@@H]1NC(=O)[C@H](Cc2c[nH]c3ccccc23)NC(=O)[C@H](CC(=O)O)NC(=O)[C@H](Cc2ccc(O)cc2)NC(=O)[C@H](CC(N)=O)NC(=O)CSC[C@@H](C(=O)N[C@@H](C)C(N)=O)NC(=O)[C@H](CO)NC(=O)[C@H](C(C)C)NC(=O)[C@H](CC(C)C)NC(=O)[C@H](CCN)NC(=O)[C@H]2CCCN2C(=O)[C@H](CCCN)NC(=O)[C@H](C(C)C)NC(=O)[C@H](Cc2ccc(-c3ccccc3)cc2)NC1=O [Example 1401] ({CH2CO}-NYDWL[Bip]V[Orn][dP][Dab]LVSCA-NH2; thioether N-14) | 170 nM
CC(C)C[C@@H]1NC(=O)[C@H](CCCNC(=N)N)NC(=O)[C@H]2CCCN2C(=O)[C@H](C)N(C)C(=O)[C@H](CCCNC(=N)N)NC(=O)[C@H](Cc2ccc(-c3ccccc3)cc2)NC(=O)[C@H](C(C)C)NC(=O)[C@H](Cc2c[nH]c3ccccc23)NC(=O)[C@H](CC(=O)O)NC(=O)[C@H](Cc2ccc(O)cc2)NC(=O)[C@H](Cc2ccccc2)NC(=O)CSC[C@@H](C(=O)N[C@@H](C)C(N)=O)NC(=O)[C@H](CO)NC(=O)[C@H](C(C)C)NC1=O [Example 1122] ({CH2CO}-FYDWV[Bip]R[NMeA][dP]RLVSCA-NH2; thioether N-14) | 430 nM
CC(C)C[C@@H]1NC(=O)[C@H](Cc2c[nH]c3ccccc23)NC(=O)[C@H](CC(=O)O)NC(=O)[C@H](Cc2ccc(O)cc2)NC(=O)C(Cc2ccccc2)NC(=O)CSC[C@@H](C(=O)NCC(N)=O)NC(=O)[C@@H](CO)NC(=O)[C@H](C(C)C)NC(=O)[C@H](CC(C)C)NC(=O)[C@H](CC(N)=O)NC(=O)CN(C)C(=O)[C@H](C)N(C)C(=O)[C@H](C(C)C)NC(=O)[C@H](Cc2ccc(-c3ccccc3)cc2)NC1=O (stereo partly shown) [Example 1043] ({CH2CO}-[ξF]YDWL[Bip]V[NMeA][Sar]NLV[dS]CG-NH2; thioether N-14) | 80 nM
COc1cccc(C[C@@H]2NC(=O)[C@H](CC(=O)O)NC(=O)[C@H](Cc3ccc(O)cc3)NC(=O)[C@H](Cc3ccccc3)NC(=O)CSC[C@@H](C(=O)N[C@@H](C)C(N)=O)NC(=O)[C@H](CO)NC(=O)[C@H](C(C)C)NC(=O)[C@H](CC(C)C)NC(=O)[C@H](CC(N)=O)NC(=O)[C@H]3CCCN3C(=O)[C@H](C)N(C)C(=O)[C@H](C(C)C)NC(=O)[C@H](Cc3ccc(-c4ccccc4)cc3)NC(=O)[C@H](CC(C)C)NC2=O)c1 [Example 1022] ({CH2CO}-FYD[Phe(3-OMe)]L[Bip]V[NMeA][dP]NLVSCA-NH2; thioether N-14) | 10 nM
CC(C)C[C@@H]1NC(=O)[C@H](CCCN)NC(=O)[C@H](Cc2ccccc2)N(C)C(=O)[C@H](C)N(C)C(=O)[C@H](CCCNC(=N)N)NC(=O)[C@H](Cc2ccc(-c3ccccc3)cc2)NC(=O)[C@H](C(C)C)NC(=O)[C@H](Cc2c[nH]c3ccccc23)NC(=O)[C@H](CC(=O)O)NC(=O)[C@H](Cc2ccc(O)cc2)NC(=O)[C@H](Cc2ccccc2)NC(=O)CSC[C@@H](C(=O)N[C@@H](C)C(N)=O)NC(=O)[C@H]([C@@H](C)O)NC(=O)[C@H](C(C)C)NC1=O [Example 1345] ({CH2CO}-FYDWV[Bip]R[NMeA][NMeF][Orn]LVTCA-NH2; thioether N-14) | 120 nM
CC(C)C[C@@H]1NC(=O)[C@H](Cc2c[nH]c3ccccc23)NC(=O)[C@H](CC(=O)O)NC(=O)[C@H](Cc2ccc(O)cc2)NC(=O)[C@H](Cc2ccccc2)NC(=O)CSC[C@@H](C(=O)NCC(N)=O)NC(=O)[C@H](CO)NC(=O)[C@H](C(C)C)NC(=O)[C@H](CC(C)C)NC(=O)[C@H](CCCNC(=N)N)NC(=O)CN(C)C(=O)[C@H](C)N(C)C(=O)[C@H](C(C)C)NC(=O)[C@H](Cc2ccc(-c3ccccc3)cc2)NC1=O [Example 1204] ({CH2CO}-FYDWL[Bip]V[NMeA][Sar]RLVSCG-NH2; thioether N-14) | 400 nM
CC(C)C[C@@H]1NC(=O)[C@H](Cc2c[nH]c3ccccc23)NC(=O)[C@H](CC(=O)O)NC(=O)[C@H](Cc2ccc(O)cc2)NC(=O)[C@H](Cc2ccccc2)NC(=O)CSC[C@@H](C(=O)NCC(N)=O)NC(=O)[C@H](CO)NC(=O)[C@H](C(C)C)NC(=O)[C@H](CC(C)C)NC(=O)[C@H](CCCNC(=N)N)NC(=O)CN(C)C(=O)[C@H](C)N(C)C(=O)[C@H](CC(=O)O)NC(=O)[C@H](Cc2ccc(-c3ccccc3)cc2)NC1=O [Example 1237] ({CH2CO}-FYDWL[Bip]D[NMeA][Sar]RLVSCG-NH2; thioether N-14) | 520 nM
CC(C)C[C@@H]1NC(=O)C(CCC(=O)O)NC(=O)[C@H](Cc2ccccc2)N(C)C(=O)[C@H](C)N(C)C(=O)[C@H](CCCNC(=N)N)NC(=O)[C@H](Cc2ccc(-c3ccccc3)cc2)NC(=O)[C@H](C(C)C)NC(=O)[C@H](Cc2c[nH]c3ccccc23)NC(=O)[C@H](CC(=O)O)NC(=O)[C@H](Cc2ccc(O)cc2)NC(=O)[C@H](Cc2ccccc2)NC(=O)CSC[C@@H](C(=O)NCC(N)=O)NC(=O)[C@H](CO)NC(=O)[C@H](C(C)C)NC1=O (stereo partly shown) [Example 1221] ({CH2CO}-FYDWV[Bip]R[NMeA][NMeF][ξE]LVSCG-NH2; thioether N-14) | 500 nM
